Several values for one entry are separate records, joined by “and”; a condition that tells them apart may be missing. Identical values can stand only once.
Legend:
Format in all cases: in vivo
[1] = Influence of theophyllamine on the blood glucose level after insulin-induced hypoglycaemia in diabetic patients
Method: (§1) Under carefully controlled conditions hypoglycaemia was induced in each of nine diabetic patients by injection of Actrapid® Human insulin, 0.15 IU/kg (available from Novo Nordisk A/S, Bagsvaerd, Denmark). The blood glucose level was monitored from just before the injection of the insulin took place until 2 hours after. The basal level, the nadir level and the level after 1 hour and 2 hours for each subject are given in Table 2 under the entry "placebo".
(§2) On a different day a study similar to the one described above was performed on the same patients, the only difference being that in this second study theophyllamine was administered concomitantly with the insulin. The theophyllamine was administered in the form of a bolus injection of 220 mg per person followed by a constant rate infusion of theophyllamine of 2,5 mg/kg body weight/hour. The corresponding glucose levels are given in Table 2 under the entry "theophyllamine".

[2] = Awareness of early hypoglycaemia warning symptoms in diabetic patients taking theophyllamine regularly; conditions: some diabetic patients who have taken theophyllamine regularly as a preventive measure
Text: Usually hypoglycaemia can be relieved by administration of glucose or glucagon. Normally, but not always, a hypoglycaemic episode is preceded by some early warning symptoms which makes it possible for the patient to take measures against it. Throughout this specification the diabetic patients' attention to these early warning symptoms is in accordance with the common usage referred to as the "awareness".

[3] = Influence of theophyllamine on the blood glucose level after insulin-induced hypoglycaemia in healthy subjects
Method: as §1, with “of eleven healty subjects” for “of nine diabetic patients”, “Table 1” for “Table 2”
as §2, with “same subjects,” for “same patients,”, “person given at the same time as the insulin” for “person”, “Table 1” for “Table 2”

[4] = diabetic patients, given concomitantly with the insulin
[5] = individual diabetic patients No. 1-9, insulin 0.15 IU/kg, theophyllamine bolus 220 mg per person + infusion 2,5 mg/kg body weight/hour
[6] = mean of nine diabetic patients, insulin 0.15 IU/kg, theophyllamine bolus 220 mg per person + infusion 2,5 mg/kg body weight/hour
[7] = healthy subjects, given concomitantly with the insulin
[8] = individual healthy subjects No. 1-11, insulin 0.15 IU/kg, theophyllamine bolus 220 mg per person + infusion 2,5 mg/kg body weight/hour
[9] = mean of eleven healthy subjects, insulin 0.15 IU/kg, theophyllamine bolus 220 mg per person + infusion 2,5 mg/kg body weight/hour

Compound: Cn1c(=O)c2[nH]cnc2n(C)c1=O [Theophyllamine, theophyllamine]
- glucose level 1 hour after the administration of insulin compared with insulin alone (placebo) [1, 4]: higher
- glucose level 2 hours after the administration of insulin compared with insulin alone (placebo) [1, 4]: higher
- nadir level compared with insulin alone (placebo) [1, 4]: higher
- Nadir Level (blood glucose) [1, 5]: 1.5 mmol/l (2×) and 4.1 mmol/l and 1.1 mmol/l (2×) and 1.7 mmol/l and 2.6 mmol/l and 1.4 mmol/l and 2.2 mmol/l
- blood glucose level 1 hr after insulin [1, 5]: 2.9 mmol/l (2×) and 2.1 mmol/l (3×) and 4.4 mmol/l and 1.9 mmol/l and 2.5 mmol/l (2×)
- blood glucose level 2 hr after insulin [1, 5]: 4.8 mmol/l and 3.7 mmol/l (2×) and 6.4 mmol/l and 3.1 mmol/l and 3.0 mmol/l (3×) and 3.8 mmol/l
- Basal Level (blood glucose) ([1]; individual diabetic patients No. 1-9, just before injection of insulin 0.15 IU/kg and theophyllamine): 4.8 mmol/l and 4.5 mmol/l (2×) and 5.5 mmol/l and 4.6 mmol/l and 5.6 mmol/l and 4.7 mmol/l and 6.0 mmol/l and 4.9 mmol/l
- Nadir level (blood glucose), MEAN [1, 6]: 2.2 mmol/L
- blood glucose level 1 hr after insulin, MEAN [1, 6]: 2.6 mmol/L
- blood glucose level 2 hr after insulin, MEAN [1, 6]: 3.8 mmol/L
- Basal Level (blood glucose), MEAN ([1]; mean of nine diabetic patients, just before injection of insulin 0.15 IU/kg and theophyllamine): 5.0 mmol/L
- awareness [2]: improved awareness
- glucose level 1 hour after the administration of insulin compared with insulin alone (placebo) [3, 7]: higher
- glucose level 2 hours after the administration of insulin compared with insulin alone (placebo) [3, 7]: higher
- nadir level compared with insulin alone (placebo) [3, 7]: higher
- Nadir Level (blood glucose) [3, 8]: 1.5 mmol/l (2×) and 1.3 mmol/l (2×) and 1.4 mmol/l and 2.0 mmol/l (2×) and 1.9 mmol/l and 1.6 mmol/l and 1.7 mmol/l and 2.4 mmol/l
- blood glucose level 1 hr after insulin [3, 8]: 2.7 mmol/L and 2.4 mmol/L and 2.3 mmol/L and 3.1 mmol/L and 2.8 mmol/L and 2.5 mmol/L and 3.0 mmol/L and 3.8 mmol/L and 2.6 mmol/L and 3.4 mmol/L and 2.0 mmol/L
- blood glucose level 2 hr after insulin [3, 8]: 3.9 mmol/l and 2.6 mmol/l and 3.1 mmol/l and 4.3 mmol/l (2×) and 4.1 mmol/l and 3.5 mmol/l (2×) and 4.5 mmol/l and 5.4 mmol/l and 5.1 mmol/l
- Basal Level (blood glucose) ([3]; individual healthy subjects No. 1-11, just before injection of insulin 0.15 IU/kg and theophyllamine): 5.2 mmol/l (4×) and 5.0 mmol/l (2×) and 5.9 mmol/l and 5.8 mmol/l (2×) and 5.6 mmol/l and 5.7 mmol/l
- Nadir level (blood glucose), MEAN [3, 9]: 1.7 mmol/L
- blood glucose level 1 hr after insulin, MEAN [3, 9]: 2.8 mmol/L
- blood glucose level 2 hr after insulin, MEAN [3, 9]: 4.0 mmol/L
- Basal Level (blood glucose), MEAN ([3]; mean of eleven healthy subjects, just before injection of insulin 0.15 IU/kg and theophyllamine): 5.4 mmol/L

Reference: EP0532446A1, “Use of xanthines in the treatment or prevention of hypeoglycemia” (NOVO NORDISK A/S, priority 1991, dated 1993)
